Results on 22 compounds are retold here after patent publication US6989384B2, “Antipicornaviral compounds and compositions, their pharmaceutical uses, and materials for their synthesis” (Agouron Pharmaceuticals, Inc., priority 2000, dated 2006).

Like-named read-outs stand apart in the source and are kept apart here.

Series [1] addresses T1, rhinovirus 3C protease from HRV serotype-14 (Human rhinovirus 14, UniProt P03303).
T1 construct: Recombinant rhinovirus 3C proteases; made in house
Put plainly: Inhibition of rhinovirus 3C protease activity (FRET assay), HRV-14. It is filed as biochemical. Conditions: read-out: Protease Inhibition kobs/I. The procedure: Stock solutions (50 mM, in DMSO) of various compounds were prepared; dilutions were in the same solvent. Recombinant rhinovirus 3C proteases (see Birch et al., “Purification of recombinant human rhinovirus 14 3C protease expressed in Escherichia coli,” Protein Expr. Pur. 1995, 6(5), 609–618) from serotypes 14, 16, and 2 were prepared by the following standard chromatographic procedures: (1) ion exchange using Q Sepharose Fast Flow from Pharmacia; (2) affinity chromatography using Affi-Gel Blue from Biorad; and (3) sizing using Sephadex G-100 from Pharmacia. Each assay sample contained 2% DMSO, 50 mM tris pH 7.6, 1 mM EDTA, a test compound at the indicated concentration, approximately 1 μM substrate, and 50–100 nM protease. The kobs/I values were obtained from reactions initiated by addition of enzyme rather than substrate. RVP activity was measured in the fluorescence resonance energy transfer assay. The substrate was (N-terminal) DABCYL-(Gly-Arg-Ala-Val-Phe-Gln-Gly-Pro-Val-Gly)-EDANS. In the uncleaved peptide, the EDANS fluorescence was quenched by the proximal DABCYL group. When the peptide was cleaved, the quenching was relieved, and activity was measured as an increase in fluorescence signal. In the Table, unless otherwise indicated, all data are for rhinovirus 3C protease from HRV serotype-14 (produced from the infectious cDNA clone constructed by Dr. Robert Rueckert, Institute for Molecular Virology, University of Wisconsin, Madison, Wis.). The data in the column designated kobs/[I] were measured from progress curves in enzyme start experiments.

A further series relates to HRV-14. The series is described as follows: Antirhinoviral H1-HeLa cell culture assay (cell protection, XTT), HRV-14. It is filed as cell-based, human rhinovirus. Conditions: Rhinovirus B, read-out: Cell Protection EC50. The procedure:
(§1) In this cell protection assay, the ability of compounds to protect cells against HRV infection was measured by the XTT dye reduction method, which is described in Weislow et al., J. Natl. Cancer Inst. 1989, vol. 81, 577–586.
(§2) H1-HeLa cells were infected with HRV-14 at a multiplicity of infection (m.o.i.) of 0.13 (virus particles/cell) or mock-infected with medium only. Infected or mock-infected cells were resuspended at 8×10^5 cells per mL, and incubated with appropriate concentrations of the compounds to be tested. Two days later, XTT/PMS was added to test plates and the amount of formazan produced was quantified spectrophotometrically at 450/650 nm. The EC50 value was calculated as the concentration of compound that increased the percentage of formazan production in compound-treated, virus-infected cells to 50% of that produced by compound-free, mock-infected cells. The 50% cytotoxic dose (CC50) was calculated as the concentration of compound that decreased the percentage of formazan produced in compound-treated, mock-infected cells to 50% of that produced by compound-free, mock-infected cells.
(§3) All strains of human rhinovirus (HRV) for use in this assay were purchased from American Type Culture Collection (ATCC), except for HRV serotype-14 (produced from the infectious cDNA clone constructed by Dr. Robert Rueckert, Institute for Molecular Virology, University of Wisconsin, Madison, Wis.). HRV stocks were propagated and viral assays were performed in H1-HeLa cells (ATCC). Cells were grown in minimal essential medium with 10% fetal bovine serum, available from Life Technologies (Gaithersburg, Md.).
The compounds were tested against control compounds WIN 51711, WIN 52084, and WIN 54954 (obtained from Sterling-Winthrop Pharmaceuticals), Pirodavir (obtained from Janssen Pharmaceuticals), and Pleconaril (prepared according to the method described in Diana et al., J. Med. Chem 1995, vol. 38, 1355). Antiviral data obtained for the test compounds are shown in the Table, where all data are for HRV serotype-14 unless otherwise noted in parentheses.
Background: Tetrazolium dyes change colour on reduction, which living cells bring about.

Series [2] is described as follows: Cytotoxicity in mock-infected H1-HeLa cells (XTT). It is filed as cell-based. Conditions: human, two days, read-out: Toxicity CC50. The procedure: as §1, §2, §3
The mark [3] stands for this setting: HRV-14 3C protease, progress curves, enzyme start.
Where [4] appears, read: HRV14, 48 h, HRV-14, H1-HeLa cells, XTT, two days.

T1 sequence (P03303 1538-1719): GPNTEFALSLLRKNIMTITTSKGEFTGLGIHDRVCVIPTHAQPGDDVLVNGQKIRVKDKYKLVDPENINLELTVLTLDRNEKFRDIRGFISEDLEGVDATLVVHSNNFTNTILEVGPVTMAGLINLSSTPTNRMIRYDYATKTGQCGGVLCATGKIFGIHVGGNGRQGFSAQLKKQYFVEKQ

As to `CCOC(=O)/C=C/[C@H](CCC(N)=O)NC(=O)c1ccccc1` [Compound 34], the kinact/KI in series [1] (setting [3]) amounted to 10 M⁻¹ s⁻¹. Moreover, the EC50 – broadly, the concentration at which the effect is half-maximal – in the series with HRV-14 (setting [4]) is above 100 µM. In addition, in series [2], the 50% cytotoxic concentration (CC50) (commonly the concentration that lowers cell viability or growth by half) at 2 days was above 100 µM.

Consider `CCOC(=O)/C=C/[C@H](C[C@@H]1CCNC1=O)NC(=O)/C=C/c1cccc(Br)c1` [Compound 3, 4S-[3-(3-bromo-phenyl)-acryloylamino]-5-(2-oxo-pyrrolidin-3S-yl)-pent-2-enoic acid ethyl ester], for which the kinact/KI in series [1] amounted to 2560 M⁻¹ s⁻¹. Further, the EC50 in the series with HRV-14 (HRV14, H1-HeLa, 48 h) came to 1.4 µM. The 50% cytotoxic concentration (CC50) at 2 days in series [2] is above 10 µM.

With `CCOC(=O)/C=C/[C@H](CCC(N)=O)NC(=O)c1cc(C(C)(C)C)nn1Cc1ccccc1` [Compound 33, 4S-[(2-benzyl-5-tert-butyl-2H-pyrazole-3-carbonyl)-amino]-6-carbamoyl-hex-2-enoic acid ethyl ester], the kinact/KI in series [1] (setting [3]) is 27 M⁻¹ s⁻¹. In the series with HRV-14 (setting [4]), the concentration giving a half-maximal response (EC50) amounted to 12.6 µM. The half-maximal cytotoxic concentration (CC50) at 2 days in series [2] was above 100 µM.

As for `CCOC(=O)/C=C/[C@H](C[C@@H]1CCNC1=O)NC(=O)c1cc2cc(Br)ccc2n1C` [Compound 21, 4S-[(5-bromo-1-methyl-indole-2-carbonyl)-amino]-5-(2-oxo-pyrrolidin-3S-yl)-pent-2-enoic acid ethyl ester], the kinact/KI in series [1] stood at 1320 M⁻¹ s⁻¹. Further, the EC50 in the series with HRV-14 (HRV14, H1-HeLa, 48 h) was 3.07 µM. In series [2], the CC50 at 2 days worked out at 17.8 µM.

Regarding `CCOC(=O)/C=C/[C@H](CCC(N)=O)NC(=O)/C=C/c1ccccc1` [Compound 29, 6-carbamoyl-4S-(3-phenyl-acryloylamino)-hex-2-enoic acid ethyl ester], in series [1] (setting [3]), the kinact/KI was 62 M⁻¹ s⁻¹. For the same compound, in the series with HRV-14 (setting [4]), the EC50 was found to be 31.6 µM. In addition, in series [2], the cytotoxic concentration (CC50) at 2 days is above 100 µM.

On to `Cc1cc(CCCOc2c(C)cc(-c3noc(C(F)(F)F)n3)cc2C)on1` [Pleconaril, reference compound], for which the EC50 in the series with HRV-14 (setting [4]) amounted to 0.01 µM. Besides, in series [2], the CC50 at 2 days was above 10 µM.

Consider `CCOC(=O)/C=C/[C@H](C[C@@H]1CCNC1=O)NC(=O)N[C@@H](CC(C)C)C(=O)OCC` [Compound 24, 4S-[3-(1S-ethoxycarbonyl-3-methyl-butyl)-ureido]-5-(2-oxo-pyrrolidin-3S-yl)-pent-2-enoic acid ethyl ester], for which the kinact/KI in series [1] worked out at 1050 M⁻¹ s⁻¹. Moreover, the EC50 in the series with HRV-14 (HRV14, H1-HeLa, 48 h) was 4.6 µM. The half-maximal cytotoxic concentration (CC50) at 2 days in series [2] is above 10 µM.

On to `CCOC(=O)/C=C/[C@H](CCC(N)=O)NC(=O)c1ccc(N(C)C)cc1` [Compound 27], for which the kinact/KI in series [1] (setting [3]) was 45 M⁻¹ s⁻¹. Moreover, the half-maximal effective concentration (EC50) with HRV-14 (setting [4]) was determined as 3.9 µM. For the same compound, in series [2], the CC50 at 2 days was above 100 µM.

With `CCOC(=O)/C=C/[C@H](CCC(N)=O)NC(=O)c1ccccc1CCc1ccccc1` [Compound 37, 6-carbamoyl-4S-(2-phenethyl-benzoylamino)-hex-2-enoic acid ethyl ester], the kinact/KI in series [1] (setting [3]) was 6 M⁻¹ s⁻¹. For the same compound, the EC50 in the series with HRV-14 (setting [4]) is above 100 µM. In addition, in series [2], the CC50 at 2 days is above 100 µM.

As for `CCOC(=O)c1ccc(OCCC2CCN(c3ccc(C)nn3)CC2)cc1` [Pirodavir, reference compound], the EC50 in the series with HRV-14 (setting [4]) amounted to 0.03 µM. Moreover, the CC50 at 2 days in series [2] was above 10 µM.

As for `CCOC(=O)/C=C/[C@H](C[C@@H]1CCNC1=O)NC(=O)/C=C/c1ccc(C)cc1` [Compound 12, 5-(2-oxo-pyrrolidin-3S-yl)-4S-(3-p-tolyl-acryloylamino)-pent-2-enoic acid ethyl ester], the kinact/KI in series [1] turned out to be 990 M⁻¹ s⁻¹. Also, the EC50 with HRV-14 (HRV14, H1-HeLa, 48 h) was found to be 2.77 µM. The CC50 at 2 days in series [2] is above 10 µM.

Regarding `CCOC(=O)/C=C/[C@H](CCC(N)=O)NC(=O)c1cc2ccccc2[nH]1` [Compound 38, 6-carbamyl-4S-[(1H-indole-2-carbonyl)-amino]-hex-2-enoic acid ethyl ester], the kinact/KI in series [1] (setting [3]) turned out to be 71 M⁻¹ s⁻¹. For the same compound, the concentration giving a half-maximal response (EC50) with HRV-14 (setting [4]) was 1 µM. In addition, the CC50 at 2 days in series [2] was above 100 µM.

For `CCOC(=O)/C=C/[C@H](C[C@@H]1CCNC1=O)NC(=O)COc1ccc(Cl)c(Cl)c1` [Compound 62, 4S-[2-(3,4-dichloro-phenoxy)-acetylamino]-5-(2-oxo-pyrrolidin-3S-yl)-pent-2-enoic acid ethyl ester], the kinact/KI in series [1] was determined as 134 M⁻¹ s⁻¹. Further, the 50% effective concentration (EC50) in the series with HRV-14 (HRV14, H1-HeLa, 48 h) is 6.1 µM. The CC50 at 2 days in series [2] is above 10 µM.

As for `CCOC(=O)/C=C/[C@H](C[C@@H]1CCNC1=O)NC(=O)/C=C/c1ccc(C)c(Br)c1` [Compound 23, 4S-[3-(3-bromo-4-methyl-phenyl)-acryloylamino]-5-(2-oxo-pyrrolidin-3S-yl)-pent-2-enoic acid ethyl ester], in series [1], the kinact/KI was 4080 M⁻¹ s⁻¹. For the same compound, the 50% effective concentration (EC50) in the series with HRV-14 (HRV14, H1-HeLa, 48 h) was determined as 1.29 µM. In addition, in series [2], the CC50 at 2 days is above 10 µM.

Take `CCOC(=O)/C=C/[C@H](C[C@@H]1CCNC1=O)NC(=O)/C=C/c1ccc([N+](=O)[O-])cc1` [Compound 15, 4S-[3-(4-nitro-phenyl)-acryloylamino]-5-(2-oxo-pyrrolidin-3S-yl)-pent-2-enoic acid ethyl ester]: the kinact/KI in series [1] was determined as 2020 M⁻¹ s⁻¹. The EC50 with HRV-14 (HRV14, H1-HeLa, 48 h) was determined as 1.53 µM. In addition, the cytotoxic concentration (CC50) at 2 days in series [2] is above 10 µM.

Take `CCOC(=O)/C=C/[C@H](CCC(N)=O)NC(=O)c1nn(-c2ccccc2)nc1C` [Compound 32, 6-carbamoyl-4S-[(5-methyl-2-phenyl-2H-[1,2,3]triazole-4-carbonyl)-amino]-hex-2-enoic acid ethyl ester]: the kinact/KI in series [1] (setting [3]) is 83 M⁻¹ s⁻¹. Besides, the EC50 in the series with HRV-14 (setting [4]) was found to be 1.8 µM. Also, the CC50 at 2 days in series [2] is above 100 µM.

As for `CCOC(=O)/C=C/[C@H](C[C@@H]1CCNC1=O)NC(=O)c1cc2cc(CC)ccc2[nH]1` [Compound 8, 4S-[(5-ethyl-1H-indole-2-carbonyl)-amino]-5-(2-oxo-pyrrolidin-3S-yl)-pent-2-enoic acid ethyl ester], the kinact/KI in series [1] was 980 M⁻¹ s⁻¹. Moreover, in the series on HRV-14 (HRV14, H1-HeLa, 48 h), the EC50 was found to be 2.67 µM. In addition, in series [2], the cytotoxic concentration (CC50) at 2 days is above 10 µM.

For the compound `CCOC(=O)/C=C/[C@H](C[C@@H]1CCNC1=O)NC(=O)c1cc2cc(C)ccc2[nH]1` [Compound 43, 4-[(5-Methyl-1H-indole-2-carbonyl)-amino]-5-(2-oxo-pyrrolidin-3-yl)-pent-2-enoic acid ethyl ester], in series [1], the kinact/KI was found to be 3460 M⁻¹ s⁻¹. Besides, the half-maximal effective concentration (EC50) in the series with HRV-14 (HRV14, H1-HeLa, 48 h) amounted to 2.14 µM. Besides, the CC50 at 2 days in series [2] is above 100 µM.

With `CCOC(=O)/C=C/[C@H](C[C@@H]1CCNC1=O)NC(=O)c1cc2cc(OC)ccc2[nH]1` [Compound 41, 4S-[(5-Methoxy-1H-indole-2-carbonyl)-amino]-5-(2-oxo-pyrrolidin-3S-yl)-pent-2-enoic acid ethyl ester], the kinact/KI in series [1] was 2190 M⁻¹ s⁻¹. The 50% effective concentration (EC50) in the series on HRV-14 (HRV14, H1-HeLa, 48 h) was 2.36 µM. Besides, in series [2], the CC50 at 2 days was above 100 µM.

Consider `CCOC(=O)/C=C/[C@H](CCC(N)=O)NC(=O)/C=C/c1cccc(Br)c1` [Compound 30, 4S-[3-(3-bromophenyl)-acryloylamino]-6-carbamoyl-hex-2-enoic acid ethyl ester], for which the kinact/KI in series [1] (setting [3]) stood at 345 M⁻¹ s⁻¹. Also, the EC50 with HRV-14 (setting [4]) was 3.2 µM. Further, in series [2], the 50% cytotoxic concentration (CC50) at 2 days is above 100 µM.

On to `CCOC(=O)/C=C/[C@H](C[C@@H]1CCNC1=O)NC(=O)Nc1cccc2ccccc12` [Compound 56, 4S-(3-naphthalen-1-yl)-5-(2-oxo-pyrrolidin-3S-yl)-pent-2-enoic acid ethyl ester], for which the kinact/KI in series [1] is 117 M⁻¹ s⁻¹. Also, the EC50 with HRV-14 (HRV14, H1-HeLa, 48 h) is above 10 µM. Also, the CC50 at 2 days in series [2] is above 10 µM.

Regarding `CCOC(=O)/C=C/[C@H](C[C@@H]1CCNC1=O)NC(=O)/C=C/c1ccc2c(c1)OCO2` [Compound 9, 4S-(3-benzo[1,3]dioxol-5-yl-acryloylamino)-5-(2-oxo-pyrrolidin-3S-yl)-pent-2-enoic acid ethyl ester], the kinact/KI in series [1] stood at 1960 M⁻¹ s⁻¹. In the series on HRV-14 (HRV14, H1-HeLa, 48 h), the 50% effective concentration (EC50) was 1.81 µM. The CC50 at 2 days in series [2] was above 10 µM.
